Literature values, collected in article PMC12932482 (Frontiers in Pharmacology, 2026).

Details: Obs, +CLA (with clarithromycin); ref Rengelshausen et al. (2003)

## C[C@H]1O[C@@H](O[C@H]2[C@@H](O)C[C@H](O[C@H]3[C@@H](O)C[C@H](O[C@H]4CC[C@@]5(C)[C@H](CC[C@@H]6[C@@H]5C[C@@H](O)[C@]5(C)[C@@H](C7=CC(=O)OC7)CC[C@]65O)C4)O[C@@H]3C)O[C@@H]2C)C[C@H](O)[C@@H]1O [digoxin]
  AUC0–3h: 11 ng·h/mL
